The results in this text go back to patent publication US7022716B2, “Cyclic amine phenyl beta-3 adrenergic receptor agonists” (Wyeth, priority 2000, dated 2006).

The structures appear in SMILES notation.

This assay deals with T1, human β3 adrenergic receptor (Homo sapiens, UniProt P13945).
T1 construct: Full length β3 AR clones (402 amino acids) containing the last 6 amino acids of hβ3-AR are prepared; expressed in transfected cells; host or cells: CHO (Chinese hamster ovary) cells
T1 sequence (P13945 whole entry): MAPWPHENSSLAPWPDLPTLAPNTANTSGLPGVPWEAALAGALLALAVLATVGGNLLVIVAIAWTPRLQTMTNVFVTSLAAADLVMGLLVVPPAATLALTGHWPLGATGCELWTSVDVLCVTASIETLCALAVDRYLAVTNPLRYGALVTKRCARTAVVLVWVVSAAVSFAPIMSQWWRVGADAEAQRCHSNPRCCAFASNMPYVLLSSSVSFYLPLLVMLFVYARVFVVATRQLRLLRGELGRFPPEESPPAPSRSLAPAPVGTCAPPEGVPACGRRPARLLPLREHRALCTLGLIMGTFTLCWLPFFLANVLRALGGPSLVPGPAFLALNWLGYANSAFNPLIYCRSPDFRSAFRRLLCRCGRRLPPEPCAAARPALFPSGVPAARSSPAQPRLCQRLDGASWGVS
In words: cAMP (SPA) response in CHO cells transfected with human β3 adrenergic receptor. The note with it: maximal response relative to maximal response of isoproterenol at 10^-5 M. Further details: key: fraction of maximal isoproterenol (10^-5 M) response. Type of assay: cell-based. In short, it runs like this: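 Reactions were stopped with 0.2N HCl and neutralised, and cAMP was measured by SPA. Activity is expressed as percent of the maximal 10^−5 M isoproterenol response.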
As to `CS(=O)(=O)Nc1cc([C@@H](O)CNC2CCN(c3ccc(NS(=O)(=O)CC(=O)OCc4ccccc4)cc3)CC2)ccc1O` [Example 322, Benzyl[(4-{4-[((2R)-2-hydroxy-2-{4-hydroxy-3-[(methylsulfonyl)amino]phenyl}-ethyl)amino]-1-piperidinyl}anilino)sulfonyl]acetate], the “IA(β3)” value is given as 0.89.
As for `CS(=O)(=O)Nc1cc([C@@H](O)CNC2CCN(c3ccc(NS(=O)(=O)CC(=O)O)cc3)CC2)ccc1O` [Example 323, [(4-{4-[((2R)-2-Hydroxy-2-{4-hydroxy-3-[(methylsulfonyl)amino]phenyl}ethyl)amino]-1-piperidinyl}anilino)sulfonyl]acetic acid], the “IA(β3)” value is listed as 0.92.
The same measure for `CCCCN(c1ccc(N2CCC(NC[C@H](O)c3ccc(O)c(NS(C)(=O)=O)c3)CC2)cc1)S(=O)(=O)CC(=O)OCc1ccccc1` [Example 324, Benzyl[(butyl-4-{4-[((2R)-2-hydroxy-2-{4-hydroxy-3-[(methylsulfonyl)amino]phenyl}-ethyl)amino]-1-piperidinyl)anilino)sulfonyl}acetate]: 0.9; for `CS(=O)(=O)Nc1cc([C@@H](O)CNC2CCN(c3ccc(NS(=O)(=O)c4cccnc4)cc3)CC2)ccc1O` [Example 326, N-(4-{4-[((2R)-2-Hydroxy-2-{4-hydroxy-3-[(methylsulfonyl)amino]phenyl}ethyl)amino]-1-piperidinyl}phenyl)-3-pyridinesulfonamide]: 1.3.
As to `O=c1[nH]c2cccc(OC[C@@H](O)CNC3CCN(c4ccc(NS(=O)(=O)c5ccc(Cl)c(Cl)c5)cc4)CC3)c2[nH]1` [Example 327, 3,4-Dichloro-N-{4-[4-({(2S)-2-hydroxy-3-[(2-oxo-2,3-dihydro-1H-benzimidazol-4-yl)oxy]propyl}amino)-1-piperidinyl]phenyl}benzenesulfonamide], the “IA(β3)” value is recorded as 0.86.
The same measure for `O=c1[nH]c2cccc(OC[C@@H](O)CNC3CCN(c4ccc(NS(=O)(=O)c5ccc(C(F)(F)F)cc5)cc4)CC3)c2[nH]1` [Example 328]: 0.89; for `O=c1[nH]c2cccc(OC[C@@H](O)CNC3CCN(c4ccc(NS(=O)(=O)c5ccc(OC(F)(F)F)cc5)cc4)CC3)c2[nH]1` [Example 329, N-{4-[4-({(2S)-2-Hydroxy-3-[(2-oxo-2,3-dihydro-1H-benzimidazol-4-yl)oxy]propyl}-amino)-1-piperidinyl]phenyl}-4-(trifluoromethoxy)benzenesulfonamide]: 0.9; for `COc1ccc(S(=O)(=O)Nc2ccc(N3CCC(NC[C@H](O)COc4cccc5[nH]c(=O)[nH]c45)CC3)cc2)cc1` [Example 330, N-{4-[4-({(2S)-2-Hydroxy-3-[(2-oxo-2,3-dihydro-1H-benzimidazol-4-yl)oxy]propyl}-amino)-1-piperidinyl]phenyl}-4-methoxybenzenesulfonamide]: 0.98.
In the case of `O=c1[nH]c2cccc(OC[C@@H](O)CNC3CCN(c4ccc(NS(=O)(=O)c5ccc(Cl)cc5)cc4)CC3)c2[nH]1` [Example 331, 4-Chloro-N-{4-[4-({(2S)-2-hydroxy-3-[(2-oxo-2,3-dihydro-1H-benzimidazol-4-yl)oxy]propyl}amino)-1-piperidinyl]phenyl}benzenesulfonamide] it was 1; in that of `CCCCc1ccc(S(=O)(=O)Nc2ccc(N3CCC(NC[C@H](O)COc4cccc5[nH]c(=O)[nH]c45)CC3)cc2)cc1` [Example 332, 4-Butyl-N-{4-[4-({(2S)-2-hydroxy-3-[(2-oxo-2,3-dihydro-1H-benzimidazol-4-yl)oxy]propyl}amino)-1-piperidinyl]phenyl}benzenesulfonamide.], 1.1; in that of `O=c1[nH]c2cccc(OC[C@@H](O)CNC3CCN(c4ccc(NS(=O)(=O)c5cc(Cl)cc(Cl)c5)cc4)CC3)c2[nH]1` [Example 333, 3,5-Dichloro-N-{4-[4-({(2S)-2-hydroxy-3-[(2-oxo-2,3-dihydro-1H-benzimidazol-4-yl)oxy]propyl}amino)-1-piperidinyl]phenyl}benzenesulfonamide], 0.83.
In the case of `COc1ccc(OC)c(S(=O)(=O)Nc2ccc(N3CCC(NC[C@H](O)COc4cccc5[nH]c(=O)[nH]c45)CC3)cc2)c1` [Example 334, N-{4-[4-({(2S)-2-Hydroxy-3-[(2-oxo-2,3-dihydro-1H-benzimidazol-4-yl)oxy]propyl}-amino)-1-piperidinyl]phenyl}-2,5-dimethoxybenzenesulfonamide], the “IA(β3)” value is recorded as 0.91.
In the case of `COc1ccc(OC)c(S(=O)(=O)Nc2ccc(N3CCC(NC[C@H](O)c4ccc(O)c(NS(C)(=O)=O)c4)CC3)cc2)c1` [Example 335, N-(4-{4-[((2R)-2-Hydroxy-2-{4-hydroxy-3-[(methylsulfonyl)amino]phenyl}ethyl)amino]-1-piperidinyl}phenyl)-2,5-dimethoxybenzenesulfonamide], the “IA(β3)” value amounted to 0.98.
The same measure for `COc1ccc(Br)cc1S(=O)(=O)N(c1ccc(N2CCC(NC[C@H](O)COc3cccc4[nH]c(=O)[nH]c34)CC2)cc1)S(=O)(=O)c1cc(Br)ccc1OC` [Example 337]: 0.72.
As for `COc1ccc(Br)cc1S(=O)(=O)Nc1ccc(N2CCC(NC[C@H](O)COc3cccc4[nH]c(=O)[nH]c34)CC2)cc1` [Example 338, 5-Bromo-N-{4-[4-(f{(2S)-2-hydroxy-3-[(2-oxo-2,3-dihydro-1H-benzimidazol-4-yl)oxy]propyl}amino)-1-piperidinyl]phenyl}-2-methoxybenzenesulfonamide], the “IA(β3)” value is on record as 1.
In the case of `CCCCS(=O)(=O)N(CC(=O)OCc1ccccc1)c1ccc(N2CCC(NC[C@H](O)c3ccc(O)c(NS(C)(=O)=O)c3)CC2)cc1` [Example 342] it was 1.
The same measure for `CCCCS(=O)(=O)N(CC(=O)OCC)c1ccc(N2CCC(NC[C@H](O)c3ccc(O)c(NS(C)(=O)=O)c3)CC2)cc1` [Example 345]: 1.
As for `O=S(=O)(Nc1ccc(N2CCC(NC[C@H](O)COc3ccccc3)CC2)cc1)c1ccc(Oc2ncc(C(F)(F)F)cc2Cl)cc1` [Example 346, 4-{[3-Chloro-5-(trifluoromethyl)-2-pyridinyl]oxy}-N-[4-(4-{[(2S)-2-hydroxy-3-phenoxypropyl]amino}-1-piperidinyl)phenyl]benzenesulfonamide], the “IA(β3)” value was 0.76.
With `O=C(NCc1ccc(S(=O)(=O)Nc2ccc(N3CCC(NC[C@H](O)COc4cccc5[nH]c(=O)[nH]c45)CC3)cc2)s1)c1ccccc1` [Example 347, N-{[5-({4-[4-({(2S)-2-Hydroxy-3-[(2-oxo-2,3-dihydro-1H-benzimidazol-4-yl)oxy]propyl}amino)-1-piperidinyl]anilino}sulfonyl)-2-thienyl]methyl}benzamide], the “IA(β3)” value was 0.91.
`O=C(NCc1ccc(S(=O)(=O)Nc2ccc(N3CCC(NC[C@H](O)COc4ccccc4)CC3)cc2)s1)c1ccccc1` [Example 348]: the “IA(β3)” value was found to be 0.63.
Turning to `O=C(NCc1ccc(S(=O)(=O)Nc2ccc(N3CCC(NCC(O)c4cccc(O)c4)CC3)cc2)s1)c1ccccc1` (stereo not shown) [Example 349, N-[(5-{[4-(4-{[2-Hydroxy-2-(3-hydroxyphenyl)ethyl]amino}-1-piperidinyl)-anilino]sulfonyl}-2-thienyl)methyl]benzamide], the “IA(β3)” value was found to be 1.26.
In the case of `O=c1[nH]c2cccc(OC[C@@H](O)CNC3CCN(c4ccc(NS(=O)(=O)c5ccc(Oc6ncc(C(F)(F)F)cc6Cl)cc5)cc4)CC3)c2[nH]1` [Example 350, 4-{[3-Chloro-5-(trifluoromethyl)-2-pyridinyl]oxy}-N-{4-[4-({(2S)-2-hydroxy-3-[(2-oxo-2,3-dihydro-1H-benzimidazol-4-yl)oxy]propyl}amino)-1-piperidinyl]phenyl}-benzenesulfonamide] it was 1.26.
In the case of `O=S(=O)(Nc1ccc(N2CCC(NCC(O)c3cccc(O)c3)CC2)cc1)c1ccc(Oc2ncc(C(F)(F)F)cc2Cl)cc1` (stereo not shown) [Example 351] it was 0.76; in that of `O=c1[nH]c2cccc(OC[C@@H](O)CNC3CCN(c4ccc(NS(=O)(=O)c5cc(Cl)c(Oc6ccc([N+](=O)[O-])cc6Cl)c(Cl)c5)cc4)CC3)c2[nH]1` [Example 352, 3,5-Dichloro-4-(2-chloro-4-nitrophenoxy)-N-{4-[4-({(2S)-2-hydroxy-3-[(2-oxo-2,3-dihydro-1H-benzimidazol-4-yl)oxy]propyl}amino)-1-piperidinyl]phenyl}-benzenesulfonamide], 1.02; in that of `O=[N+]([O-])c1ccc(Oc2c(Cl)cc(S(=O)(=O)Nc3ccc(N4CCC(NC[C@H](O)COc5ccccc5)CC4)cc3)cc2Cl)c(Cl)c1` [Example 353, 3,5-Dichloro-4-(2-chloro-4-nitrophenoxy)-N-[4-(4-{[(2S)-2-hydroxy-3-phenoxypropyl]amino}-1-piperidinyl)phenyl]benzenesulfonamide], 0.97.
With `O=[N+]([O-])c1ccc(Oc2c(Cl)cc(S(=O)(=O)Nc3ccc(N4CCC(NCC(O)c5cccc(O)c5)CC4)cc3)cc2Cl)c(Cl)c1` (stereo not shown) [Example 354, 3,5-Dichloro-4-(2-chloro-4-nitrophenoxy)-N-[4-(4-{[2-hydroxy-2-(3-hydroxyphenyl)-ethyl]amino}-1-piperidinyl)phenyl]benzenesulfonamide], the “IA(β3)” value was determined as 0.73.
Take `O=S(=O)(Nc1ccc(N2CCC(NC[C@@H](O)c3cccc(O)c3)CC2)cc1)c1cccs1` [Example 357, N-[4-(4-{[(2S)-2-Hydroxy-2-(3-hydroxyphenyl)ethyl]amino}-1-piperidinyl)phenyl]-2-thiophenesulfonamide]: the “IA(β3)” value came to 0.87.
The same measure for `CCCCOc1ccc(S(=O)(=O)Nc2ccc(N3CCC(NC[C@H](O)COc4cccc5[nH]c(=O)[nH]c45)CC3)cc2)cc1` [Example 358, 4-Butoxy-N-{4-[4-({(2S)-2-hydroxy-3-[(2-oxo-2,3-dihydro-1H-benzimidazol-4-yl)oxy]propyl}amino)-1-piperidinyl]phenyl}benzenesulfonamide]: 1.1.
